For data set [1] the following is noted: DTA; for Normal melting temperature: Crystal.
The nature of data set [2]: Molar enthalpy of transition or fusion. The following applies: Crystal; DSC.

± gives the expanded uncertainty stated by the source.

For `OC[C@H]1O[C@H](O[C@H]2O[C@H](CO)[C@@H](O)[C@H](O)[C@H]2O)[C@H](O)[C@@H](O)[C@@H]1O` [α-trehalose], the Normal melting temperature in data set [1] was 209.4 ± 0.5 °C. Also, the Glass transition temperature in data set [1] (Glass) came out at 120.0 ± 2 °C. In data set [2], the “Molar enthalpy of transition or fusion” value was found to be 12.8 ± 0.669 kcal/mol.
With `O.O.OC[C@H]1O[C@H](O[C@H]2O[C@H](CO)[C@@H](O)[C@H](O)[C@H]2O)[C@H](O)[C@@H](O)[C@@H]1O` [D-(+)-trehalose dihydrate], in data set [1], the Normal melting temperature came to 99.10 ± 0.5 °C. In addition, the “Molar enthalpy of transition or fusion” value in data set [2] is 26.2 ± 0.669 kcal/mol.

These data come from the NIST ThermoML archive (doi:10.1016/j.jct.2005.11.005).
